Measurements taken from US10485235B2, “Aryloxypyrimidinyl ethers as herbicides” (FMC Corporation, priority 2015, dated 2019).

Columns and labels:
Type in all cases: in vivo
[1] = system: galium (catchweed bedstraw, Galium aparine); assay: Test A postemergence, galium
Procedure, shortened: (§1)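 Scores (0 no effect to 100 complete control) come from visual comparison of treated and untreated plants kept about 10 days in a greenhouse. Growth medium was a loam/sand blend; preemergence treatment was a directed soil spray, postemergence treatment went onto plants at the 1–2 leaf stage.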

kochia (Kochia scoparia) [2] = assay: Test A postemergence, kochia
Procedure, shortened: as §1

[3] = system: barnyardgrass (Echinochloa crus-galli); assay: Test A preemergence, barnyardgrass; conditions: Preemergence, 0 to 100 scale (0 no effect, 100 complete control)
Procedure, shortened: as §1

corn (Zea mays) = assay: Test A postemergence, corn
Procedure, shortened: as §1

[4] = system: pigweed (Amaranthus retroflexus); assay: Test A preemergence, pigweed; conditions: Preemergence, 0 to 100 scale (0 no effect, 100 complete control)
Procedure, shortened: as §1

rice (Oryza sativa) = assay: Test B flooded paddy test, rice; conditions: 250 g ai/ha, Flood; visual rating after 13 to 15 days; scale 0 to 100, 0 is no effect, 100 is complete control
Procedure, shortened: (§2)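 Visual ratings, 0 = no effect to 100 = complete control, versus controls after 13 to 15 days in greenhouse. Test compounds were added to paddy water kept 3 cm over the soil surface, on plants at 2-leaf stage.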

[5] = system: barnyardgrass (Echinochloa crus-galli); assay: Test A postemergence, barnyardgrass
Procedure, shortened: as §1

kochia (Kochia scoparia) [6] = assay: Test A preemergence, kochia; conditions: Preemergence, 0 to 100 scale (0 no effect, 100 complete control)
Procedure, shortened: as §1

[7] = system: sedge, umbrella (small-flower umbrella sedge, Cyperus difformis); assay: Test B flooded paddy test, umbrella sedge; conditions: 250 g ai/ha, Flood; visual rating after 13 to 15 days; scale 0 to 100, 0 is no effect, 100 is complete control
Procedure, shortened: as §2

[8] = system: ryegrass, Italian (Italian ryegrass, Lolium multiflorum); assay: Test A preemergence, Italian ryegrass; conditions: Preemergence, 0 to 100 scale (0 no effect, 100 complete control)
Procedure, shortened: as §1

[9] = system: wheat (Triticum aestivum); assay: Test A postemergence, wheat
Procedure, shortened: as §1

[10] = system: ragweed (common ragweed, Ambrosia elatior); assay: Test A postemergence, ragweed
Procedure, shortened: as §1

[11] = system: foxtail, giant (giant foxtail, Setaria faberii); assay: Test A postemergence, giant foxtail
Procedure, shortened: as §1

[12] = system: ragweed (common ragweed, Ambrosia elatior); assay: Test A preemergence, ragweed; conditions: Preemergence, 0 to 100 scale (0 no effect, 100 complete control)
Procedure, shortened: as §1

[13] = system: pigweed (Amaranthus retroflexus); assay: Test A postemergence, pigweed
Procedure, shortened: as §1

[14] = system: ducksalad (Heteranthera limosa); assay: Test B flooded paddy test, ducksalad; conditions: 250 g ai/ha, Flood; visual rating after 13 to 15 days; scale 0 to 100, 0 is no effect, 100 is complete control
Procedure, shortened: as §2

[15] = system: ryegrass, Italian (Italian ryegrass, Lolium multiflorum); assay: Test A postemergence, Italian ryegrass
Procedure, shortened: as §1

[16] = system: foxtail, giant (giant foxtail, Setaria faberii); assay: Test A preemergence, giant foxtail; conditions: Preemergence, 0 to 100 scale (0 no effect, 100 complete control)
Procedure, shortened: as §1

[17] = system: barnyardgrass (Echinochloa crus-galli); assay: Test B flooded paddy test, barnyardgrass; conditions: 250 g ai/ha, Flood; visual rating after 13 to 15 days; scale 0 to 100, 0 is no effect, 100 is complete control
Procedure, shortened: as §2

[18] = system: blackgrass (Alopecurus myosuroides); assay: Test A postemergence, blackgrass
Procedure, shortened: as §1

[19] = 125 g ai/ha, postemergence, 0 to 100 scale, 0 is no effect, 100 is complete control, approximately 10 days
[20] = 500 g ai/ha, postemergence, 0 to 100 scale, 0 is no effect, 100 is complete control, approximately 10 days
[21] = 31 g ai/ha, postemergence, 0 to 100 scale, 0 is no effect, 100 is complete control, approximately 10 days
[22] = Postemergence, 31 g ai/ha, 0 to 100 scale (0 no effect, 100 complete control)

SMILES	Plant response rating, Galium [1, 19]	Plant response rating, Kochia (kochia (Kochia scoparia) [2]; [19])	Plant response rating, Barnyardgrass ([3]; 125 g ai/ha)	Plant response rating, Corn (corn (Zea mays); [19])	Plant response rating, Pigweed ([4]; 125 g ai/ha)	Plant response rating, Rice (rice (Oryza sativa))	Plant response rating, Barnyardgrass [5, 19]	Plant response rating, Kochia (kochia (Kochia scoparia) [6]; 125 g ai/ha)	Plant response rating, Sedge, Umbrella [7]	Plant response rating, Ryegrass, Italian ([8]; 125 g ai/ha)	Plant response rating, Wheat [9, 19]	Plant response rating, Ragweed [10, 19]	Plant response rating, Foxtail, Giant [11, 19]	Plant response rating, Ragweed ([12]; 125 g ai/ha)	Plant response rating, Pigweed [13, 19]	Plant response rating, Ducksalad [14]	Plant response rating, Ryegrass, Italian [15, 19]	Plant response rating, Foxtail, Giant ([16]; 125 g ai/ha)	Plant response rating, Barnyardgrass [17]	Plant response rating, Blackgrass [18, 19]	further results
Fc1cccc(Oc2ncc(Cl)cn2)c1OCCC(F)(F)F [Compound 29]	20	40	70	0	100	0	20	40	0	10	0	0	20	0	50	50	0	70	0	0	Plant response rating, Galium [1, 20]: 50; Plant response rating, Kochia (kochia (Kochia scoparia) [2]; [20]): 80; Plant response rating, Barnyardgrass ([3]; 500 g ai/ha): 100; Plant response rating, Corn (corn (Zea mays); [20]): 10; Plant response rating, Pigweed ([4]; 500 g ai/ha): 100; Plant response rating, Barnyardgrass [5, 20]: 70; Plant response rating, Kochia (kochia (Kochia scoparia) [6]; 500 g ai/ha): 100; Plant response rating, Ryegrass, Italian ([8]; 500 g ai/ha): 70; Plant response rating, Wheat [9, 20]: 20; Plant response rating, Ragweed [10, 20]: 10; Plant response rating, Foxtail, Giant [11, 20]: 80; Plant response rating, Ragweed ([12]; 500 g ai/ha): 20; Plant response rating, Pigweed [13, 20]: 100; Plant response rating, Ryegrass, Italian [15, 20]: 20; Plant response rating, Foxtail, Giant ([16]; 500 g ai/ha): 100; Plant response rating, Blackgrass [18, 20]: 50
FC(F)(F)/C=C/COc1c(I)cccc1Oc1ncc(Cl)cn1 [Compound 61]	50	90	20	30	70	25	50	0	95	0	0	0	30	0	90	100	0	80	20	0	Plant response rating, Galium [1, 21]: 20; Plant response rating, Kochia (kochia (Kochia scoparia) [2]; [21]): 40; Plant response rating, Barnyardgrass ([3]; 31 g ai/ha): 0; Plant response rating, Corn (corn (Zea mays); [21]): 10; Plant response rating, Pigweed ([4]; 31 g ai/ha): 0; Plant response rating, Barnyardgrass [5, 21]: 0; Plant response rating, Kochia (kochia (Kochia scoparia) [6]; 31 g ai/ha): 0; Plant response rating, Ryegrass, Italian ([8]; 31 g ai/ha): 0; Plant response rating, Wheat [9, 21]: 0; Plant response rating, Ragweed [10, 21]: 0; Plant response rating, Foxtail, Giant [11, 21]: 0; Plant response rating, Ragweed ([12]; 31 g ai/ha): 0; Plant response rating, Pigweed [13, 21]: 80; Plant response rating, Ryegrass, Italian [15, 21]: 0; Plant response rating, Foxtail, Giant ([16]; 31 g ai/ha): 0; Plant response rating, Blackgrass [18, 21]: 0
FC(F)(F)CCCOc1c(I)cccc1Oc1ncc(Cl)cn1 [Compound 60]	100	90	80	30	100	25	100	40	95	90	20	30	80	0	90	100	70	90	20	50	Plant response rating, Galium [1, 21]: 70; Plant response rating, Kochia (kochia (Kochia scoparia) [2]; [21]): 90; Plant response rating, Barnyardgrass ([3]; 31 g ai/ha): 20; Plant response rating, Corn (corn (Zea mays); [21]): 30; Plant response rating, Pigweed ([4]; 31 g ai/ha): 70; Plant response rating, Barnyardgrass [5, 21]: 30; Plant response rating, Kochia (kochia (Kochia scoparia) [6]; 31 g ai/ha): 30; Plant response rating, Ryegrass, Italian ([8]; 31 g ai/ha): 0; Plant response rating, Wheat [9, 21]: 0; Plant response rating, Ragweed [10, 21]: 0; Plant response rating, Foxtail, Giant [11, 21]: 30; Plant response rating, Ragweed ([12]; 31 g ai/ha): 0; Plant response rating, Pigweed [13, 21]: 90; Plant response rating, Ryegrass, Italian [15, 21]: 0; Plant response rating, Foxtail, Giant ([16]; 31 g ai/ha): 90; Plant response rating, Blackgrass [18, 21]: 30
N#CCCCOc1c(I)cccc1Oc1ncc(Cl)cn1 [Compound 67]	50	100	30	20	100	10	30	80	95	20	0	10	30	0	100	100	10	100	0	30	Plant response rating, Galium [1, 22]: 30; Plant response rating, Kochia (kochia (Kochia scoparia) [2]; [22]): 60; Plant response rating, Barnyardgrass ([3]; 31 g ai/ha): 0; Plant response rating, Corn (corn (Zea mays); [22]): 10; Plant response rating, Pigweed ([4]; 31 g ai/ha): 50; Plant response rating, Barnyardgrass [5, 22]: 0; Plant response rating, Kochia (kochia (Kochia scoparia) [6]; 31 g ai/ha): 20; Plant response rating, Ryegrass, Italian ([8]; 31 g ai/ha): 0; Plant response rating, Wheat [9, 22]: 0; Plant response rating, Ragweed [10, 22]: 0; Plant response rating, Foxtail, Giant [11, 22]: 10; Plant response rating, Ragweed ([12]; 31 g ai/ha): 0; Plant response rating, Pigweed [13, 22]: 60; Plant response rating, Ryegrass, Italian [15, 22]: 0; Plant response rating, Foxtail, Giant ([16]; 31 g ai/ha): 60; Plant response rating, Blackgrass [18, 22]: 0
FC(F)(F)C(F)(F)CCCOc1c(Br)cccc1Oc1ncc(Cl)cn1 [Compound 49]	30	30	10	10	0	0	0	0	0	0	0	20	10	0	60	0	20	40	0	0	Plant response rating, Galium [1, 21]: 10; Plant response rating, Kochia (kochia (Kochia scoparia) [2]; [21]): 0; Plant response rating, Barnyardgrass ([3]; 31 g ai/ha): 0; Plant response rating, Corn (corn (Zea mays); [21]): 10; Plant response rating, Pigweed ([4]; 31 g ai/ha): 0; Plant response rating, Barnyardgrass [5, 21]: 0; Plant response rating, Kochia (kochia (Kochia scoparia) [6]; 31 g ai/ha): 0; Plant response rating, Ryegrass, Italian ([8]; 31 g ai/ha): 0; Plant response rating, Wheat [9, 21]: 0; Plant response rating, Ragweed [10, 21]: 10; Plant response rating, Foxtail, Giant [11, 21]: 0; Plant response rating, Ragweed ([12]; 31 g ai/ha): 0; Plant response rating, Pigweed [13, 21]: 10; Plant response rating, Ryegrass, Italian [15, 21]: 0; Plant response rating, Foxtail, Giant ([16]; 31 g ai/ha): 0; Plant response rating, Blackgrass [18, 21]: 0
